Data as given in the supplement of paper PMC11451515.

Test system: SEM cells
Assay: cell viability relative to DMSO control; higher = less cytotoxic
Details: 48 h
Outline: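 NOMO1 or SEM (500 cells/well) or P12-Ichikawa (1000 cells/well) leukemia cells were adapted for at least four passages in each medium. They were seeded in 1536-well plates (5 μl) and pin-dosed with library compounds in DMSO over an 11-point threefold series, 47 μM to 0.79 nM. CellTiter-Glo One luminescence was read after 48 h at 37°C. Viability is the per-plate percentage relative to DMSO wells, with cell-free wells as background.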

[1] = HPLM + 10% dialyzed FBS, 0.000781 µM
[2] = HPLM + 10% dialyzed FBS, 0.00234 µM
[3] = HPLM + 10% dialyzed FBS, 0.00702 µM
[4] = HPLM + 10% dialyzed FBS, 0.0211 µM
[5] = HPLM + 10% dialyzed FBS, 0.0632 µM
[6] = HPLM + 10% dialyzed FBS, 0.19 µM
[7] = HPLM + 10% dialyzed FBS, 0.569 µM
[8] = HPLM + 10% dialyzed FBS, 1.71 µM
[9] = HPLM + 10% dialyzed FBS, 5.12 µM
[10] = HPLM + 10% dialyzed FBS, 15.4 µM
[11] = HPLM + 10% dialyzed FBS, 46.1 µM
[12] = RPMI 5 mM glucose + 10% FBS, 0.000781 µM
[13] = RPMI 5 mM glucose + 10% FBS, 0.00234 µM
[14] = RPMI 5 mM glucose + 10% FBS, 0.00702 µM
[15] = RPMI 5 mM glucose + 10% FBS, 0.0211 µM
[16] = RPMI 5 mM glucose + 10% FBS, 0.0632 µM
[17] = RPMI 5 mM glucose + 10% FBS, 0.19 µM
[18] = RPMI 5 mM glucose + 10% FBS, 0.569 µM
[19] = RPMI 5 mM glucose + 10% FBS, 1.71 µM
[20] = RPMI 5 mM glucose + 10% FBS, 5.12 µM
[21] = RPMI 5 mM glucose + 10% FBS, 15.4 µM
[22] = RPMI 5 mM glucose + 10% FBS, 46.1 µM
[23] = RPMI 5 mM glucose + 10% dialyzed FBS, 0.000781 µM
[24] = RPMI 5 mM glucose + 10% dialyzed FBS, 0.00234 µM
[25] = RPMI 5 mM glucose + 10% dialyzed FBS, 0.00702 µM
[26] = RPMI 5 mM glucose + 10% dialyzed FBS, 0.0211 µM
[27] = RPMI 5 mM glucose + 10% dialyzed FBS, 0.0632 µM
[28] = RPMI 5 mM glucose + 10% dialyzed FBS, 0.19 µM
[29] = RPMI 5 mM glucose + 10% dialyzed FBS, 0.569 µM
[30] = RPMI 5 mM glucose + 10% dialyzed FBS, 1.71 µM
[31] = RPMI 5 mM glucose + 10% dialyzed FBS, 5.12 µM
[32] = RPMI 5 mM glucose + 10% dialyzed FBS, 15.4 µM
[33] = RPMI 5 mM glucose + 10% dialyzed FBS, 46.1 µM

Row | SMILES | cell viability [1] | cell viability [2] | cell viability [3] | cell viability [4] | cell viability [5] | cell viability [6] | cell viability [7] | cell viability [8] | cell viability [9] | cell viability [10] | cell viability [11] | cell viability [12] | cell viability [13] | cell viability [14] | cell viability [15] | cell viability [16] | cell viability [17] | cell viability [18] | cell viability [19] | cell viability [20] | cell viability [21] | cell viability [22] | cell viability [23] | cell viability [24] | cell viability [25] | cell viability [26] | cell viability [27] | cell viability [28] | cell viability [29] | cell viability [30] | cell viability [31] | cell viability [32] | cell viability [33]
1 | Clc1ccc(C2(c3ccc(-c4cn[nH]c4)cc3)CCNCC2)cc1 | 79.1% | 97.2% | 83.5% | 106% | 88.8% | 96.4% | 73.7% | 87.4% | 77.7% | 40.1% | 39.9% | 95.1% | 99% | 110% | 108% | 96.1% | 100% | 98.7% | 102% | 95.9% | 56.7% | 61% | 88.3% | 91.9% | 90.7% | 92.7% | 80.5% | 90.7% | 71.8% | 89.5% | 80.1% | 57.1% | 46.5%
2 | COc1cc2c(N3CCN(C(=O)Nc4ccc(OC(C)C)cc4)CC3)ncnc2cc1OCCCN1CCCCC1 | 66.4% | 73.3% | 82.7% | 93.8% | 56.3% | 32.1% | 41.1% | 33.8% | 38% | 13.8% | 15.1% | 89.5% | 104% | 116% | 98.1% | 73% | 66.8% | 51.3% | 39.1% | 46.6% | 16.2% | 22.6% | 82.2% | 85.2% | 83.3% | 77.8% | 65% | 35.5% | 37.3% | 26.1% | 27.6% | 14.1% | 12.8%
3 | CO/N=C(/C(=O)N[C@@H]1C(=O)N2C(C(=O)O)=C(Cn3ccc(=N)n3CCO)CS[C@H]12)c1csc(N)n1 | 88.8% | 90.5% | 115% | 108% | 112% | 122% | 97.6% | 117% | 121% | 132% | 127% | 123% | 95% | 130% | 136% | 130% | 140% | 125% | 147% | 122% | 151% | 138% | – | – | – | – | – | – | – | – | – | – | –
4 | Cc1ccc(-n2nc(C(C)(C)C)cc2NC(=O)Nc2ccc(OCCN3CCOCC3)c3ccccc23)cc1 | 78.7% | 94% | 91.9% | 90.8% | 86.7% | 100% | 84% | 86.2% | 82.2% | 63.7% | 61.8% | 96.6% | 115% | 104% | 103% | 87.1% | 87.1% | 84.1% | 80.8% | 83.6% | 64% | 74.8% | 89.9% | 97.9% | 79.6% | 94.1% | 92% | 90% | 83.7% | 84.7% | 84.1% | 51.7% | 58.8%
5 | O=C1c2c(O)cccc2[C@H]([C@@H]2O[C@H](CO)[C@@H](O)[C@H](O)[C@H]2O)c2cc(CO)cc(O)c21 | 99.7% | 39% | 110% | 105% | 112% | 111% | 116% | 108% | 112% | 116% | 108% | 89.4% | 30.7% | 92.8% | 84% | 98.2% | 96.3% | 106% | 91.3% | 93% | 93.5% | 106% | 94% | 27.4% | 92.4% | 96.7% | 102% | 101% | 114% | 109% | 112% | 90.1% | 119%
6 | COc1cc2nccc(Oc3ccc(NC(=O)Nc4cc(C)on4)c(Cl)c3)c2cc1OC | 112% | 116% | 107% | 107% | 114% | 102% | 100% | 71.2% | 64.1% | 59.9% | 33.1% | 86.4% | 85.2% | 79.9% | 74.3% | 82.1% | 72.5% | 73.9% | 49.6% | 33% | 31.3% | 14.1% | 112% | 125% | 123% | 107% | 108% | 115% | 112% | 71.5% | 61.3% | 43% | 20.1%
7 | COc1cc2nccc(Oc3ccc(NC(=O)Nc4ccc(F)cc4F)c(F)c3)c2cc1OC | 103% | 86% | 63.8% | 74.4% | 50.7% | 32.3% | 41.6% | 42.2% | 34.9% | 36.4% | 20% | 118% | 115% | 87.7% | 88.9% | 71.9% | 59% | 55.9% | 51.6% | 56.4% | 53.6% | 13.3% | 72.7% | 89% | 51.1% | 62.2% | 41.6% | 37% | 34.1% | 36.4% | 33.4% | 33.3% | 12.6%
